Literature values in patent US9427419B2, “Compositions comprising dimethyl sulfoxide (DMSO)” (Abela Pharmaceuticals, Inc., priority 2005, dated 2016).

Assays:
cerebral blood flow = settings: variety of brain injuries including stroke and head trauma, animals and humans
[1] = after oral administration
[2] = higher doses, from 15 to 30 grams daily
endothelin-1 = settings: continuous intravenous infusion for 120 minutes at 0.125 g/min, angina pectoris
[3] = system: asymmetric dimethylarginine (ADMA); settings: continuous intravenous infusion for 120 minutes at 0.125 g/min, angina pectoris
[4] = system: cerebral blood flow, contused brain; settings: mice, after experimental traumatic injury
[5] = doses of 250 mg/Kg

In the case of `C[S+](C)[O-]` [DMSO, dimethyl sulfoxide], the “excitotoxic death of the neurons induced by glutamate” value (hippocampal neurons) is given as “can prevent excitotoxic death”, the “glutamate responses in hippocampal neurons” value (hippocampal neurons; DMSO concentrations 0.5-[…]) is given as “inhibit glutamate responses” and the “electrophysiological responses and calcium influx induced by glutamate, NMDA and AMPA” value (hippocampal neurons; rapidly reversible manner) is given as “suppresses”. For the same compound, the “cerebral blood flow (CBF)” value (cerebral blood flow) was “increase CBF”.
In the case of `N=C(N)NCCC[C@H](N)C(=O)O` [L-arginine], the “time of peak plasma levels” value [1] is given as 1 to 2 h, the “most common adverse reactions” value [2] is given as “nausea, abdominal cramps and diarrhea” and the “levels of endothelin-1” value (endothelin-1) is given as “reduce the levels of endothelin-1”. For the same compound, the “serum levels of asymmetric dimethylarginine (ADMA)” value [3] was “lowered the serum levels of asymmetric dimethylarginine (ADMA)”, the “cerebral blood flow (CBF) post-injury” value [4] was “increased CBF post-injury” and the contusion volume [4] was “reduction in contusion volume”.
In the case of `N[C@@H](CC(=O)O)C(=O)O` [L-aspartate], the adverse effects [5] is given as “without adverse effects”.
For `NCCCC[C@H](N)C(=O)O` [L-lysine], the adverse effects [5] is listed as “without adverse effects”.
